Results reported in patent US8486916B2, “Medicine, food and drink or feed containing sphingomyelin” (Megmilk Snow Brand Co., Ltd., priority 2005, dated 2013).

Tests used:
[1] = test system: plaque-forming cells against the sheep red blood cells; assay: Inhibitory effect on antibody production (IgM PFC against sheep red blood cells); assay type: in vivo, Lewis rats; settings: 2 mg/kg
Experimental: A mechanism under which sphingomyelin inhibits the onset of EAE was studied. […] The spleen was excised from each rat on the 18th day, and a single cell suspension was aseptically prepared therefrom. The red blood cells were removed by a hemolysis method. After washing with an RPMI-1640 medium, a cell suspension was prepared at a cell density of […]. The number of plaque-forming cells against the sheep red blood cells was counted according to the method of Jerne and used as the number of IgM PFC. From the results shown in Table 11, it was confirmed that sphingomyelin has inhibitory activity against antibody production.

[2] = test system: SD rats; assay: Water maze experiment (learning ability); assay type: in vivo; settings: 2.0% in feed for 10 days
Experimental: The sphingomyelin raw material obtained in Example 1 was used to conduct a water maze experiment for the purpose of examining the influence of orally taken sphingomyelin on learned behavior. […] First, 8-week-old male SD rats (Charles River Laboratories, Japan) were preliminarily raised for 7 days using a standard diet (AIN-93G) and then divided into 3 groups each containing 6 individuals. In this context, the rats were raised under conditions involving room temperature of 24° C., humidity of 60%, and light-dark (12 hour/12 hour) control and were allowed to freely take deionized water. [table] Subsequently, a “water filled multiple T-maze” was prepared by arranging combined T-mazes with 11 choice points in a water tank of 120 cm long, 120 cm wide, and 40 cm deep. A water maze experiment was conducted at a water temperature of 23 to 24° C. according to the method of Ishizaki (Ishizaki, Exp. Anim., vol. 27, pp. 9-12, 1978). First, the rats were separately acclimatized by 5 trials in a straight waterway a day before the test. Next, each rat was given 3 trials in the water maze for 4 consecutive days of the test. The length of time taken to swim from the start to the goal of the water maze was measured.

[3] = test system: enteropathogenic E. coli O-157; assay: Test I on prevention of enteropathogenic E. coli O-157 infection; assay type: in vivo; settings: BALB/c germ-free mice, 5 mg/day oral
Experimental: Test I on prevention of enteropathogenic E. coli O-157 infection
The intake of sphingomyelin was 5 mg/day. On the 3rd day from the start of taking, the mice were infected with enteropathogenic E. coli O-157 by oral administration at a dose of 8.5×10^6 cfu/mouse. After infection, the mice were also allowed to orally take sphingomyelin on a daily basis. […] The survival rate of the […] depending on the number of days after the administration of enteropathogenic E. coli O-157 is shown in Table 7. As is evident from the results of Table 7, the survival rate of the germ-free mice was enhanced by the administration of sphingomyelin.

[4] = test system: EAE rats; assay: Effect of sphingomyelin on EAE rats; assay type: in vivo, Lewis rats; settings: for Cumulative score of symptoms: six-grade score 0-5
Experimental: A therapeutic effect on EAE rats serving as models of multiple sclerosis, one of demyelinating diseases, will be shown. The hind footpad of Lewis rats (female, 6 week old) in groups each containing 5 individuals was immunized with a mixture of syngeneic rat brain homogenates with an equal amount of a complete Freund adjuvant (manufactured by Difco) as an antigen for inducing EAE at a dose of 80 mg in terms of the amount of the brain homogenates. Sphingomyelin was intraperitoneally administered at a dose shown in Table 9 for 18 days from the immunization day. The measurement of body weights and the observation of EAE symptoms were performed every day. […] The therapeutic effect was assessed based on the cumulative score of the symptoms in each group. […] Only a saline was administered to the control group.

[5] = test system: pigmentation in the back skin of the guinea pigs; assay: Anti-pigmentation effect by oral administration (ultraviolet-irradiated skin); assay type: in vivo, A-1 guinea pigs
Experimental: Sphingomyelin was tested for its anti-pigmentation effect by oral administration. The back of female A-1 guinea pigs (body weight: approximately 400 g) was shaved and irradiated with ultraviolet rays (UVA (max. 360 nm): 30.3 kJ/m^2, UVB (max. 312 nm): 4.8 kJ/m^2) once daily for 4 days. […] The oral administration to each group was performed once daily using a sonde, and the guinea pigs were raised for 4 weeks. The sphingomyelin raw material of Example 1 was suspended in 10 g of a saline, and this suspension was orally administered to each of the groups B to D. Influence on pigmentation in the back skin of the guinea pigs in each group was measured with a colorimeter (CHROMA METER CR-200) manufactured by MINOLTA at the start of sample administration and at the completion of sample administration. A lightness recovery rate from the start of sample administration was calculated.

[6] = test system: carrageenin-induced edema; assay: Carrageenin-induced footpad edema method; assay type: in vivo, Wistar rats; settings: 100 mg/kg oral; 5 hours after λ-carrageenin injection
Experimental: The anti-inflammatory effect of sphingomyelin was tested by a carrageenin-induced footpad edema method. Specifically, a test subject shown in Table 15 was suspended in an aqueous solution containing 0.5% carboxymethylcellulose and orally administered (100 mg/kg) to male Wistar rats (body weight: 110 to 130 g, 8 individuals per group) according to the method of Winter et al. (Proceedings of the Society for Experimental Biology & Medicine, vol. 111, pp. 554, 1962). […] An aqueous solution containing 0.5% carboxymethylcellulose and no test substance was administered to rats in a control group. A rate of increase in footpad volume (V0) attributed to the injection of λ-carrageenin was measured in the control group in the same way as above. An carrageenin-induced edema inhibition rate (%) was calculated according to the calculation formula: (V0−V1)×100/V0 and used as the anti-inflammatory activity of the test substance. A higher value of this inhibition rate indicates higher anti-inflammatory activity.

[7] = test system: Male Wistar rats; assay: Effect of preventing drunken sickness (hangover) after ethyl alcohol administration; assay type: in vivo; settings: 2 mg/kg oral together with 10 ml/kg of 40 (v/v) % ethyl alcohol
Description: Male Wistar rats were preliminarily raised for 1 week. Then, the rats of 110 to 120 g in body weight were used. The rats were fasted overnight before the experiment and given neither food nor water during the experiment. The rats were divided into an alcohol single administration group (control group) and a sphingomyelin administration group. Each group contained 5 individuals. […] After administration, the rats were observed until they recovered from drunken symptoms.

[8] = 1 mg/kg intraperitoneal for 18 days
[9] = 2 mg/kg intraperitoneal for 18 days

sphingomyelin
Average IgM/10^3 spl with respect to saline-administered control group defined as 100% [1]: 20%
Average IgM/10^3 spl ([1]; spleen cells on the 18th day, saline 138): 27
Length of time taken to swim to goal ([2]; 1st day): 33 ± 10 s
Length of time taken to swim to goal ([2]; 2nd day): 25 ± 6 s
Length of time taken to swim to goal ([2]; 3rd day): 18 ± 5 s
Length of time taken to swim to goal ([2]; 4th day): 17 ± 6 s
Survival rate ([3]; 0 days after administration of E. coli): 100%
Survival rate ([3]; 2 days after administration of E. coli): 100%
Survival rate ([3]; 4 days after administration of E. coli): 100%
Survival rate ([3]; 6 days after administration of E. coli): 80%
Survival rate ([3]; 8 days after administration of E. coli): 70%
Cumulative score of symptoms with respect to saline-administered control group defined as 100% [4, 8]: 18%
Frequency of onset [4, 8]: 2/5
The average number of days required for onset [4, 8]: 15.2
Cumulative score of symptoms [4, 8]: 10
Cumulative score of symptoms with respect to saline-administered control group defined as 100% [4, 9]: 19%
Frequency of onset [4, 9]: 2/5
The average number of days required for onset [4, 9]: 14.5
Cumulative score of symptoms [4, 9]: 11
Lightness recovery rate ([5]; 2 mg/kg oral once daily for 4 weeks (group B), group A 31): 48%
Lightness recovery rate ([5]; 5 mg/kg oral once daily for 4 weeks (group C)): 62%
Lightness recovery rate ([5]; 10 mg/kg oral once daily for 4 weeks (group D)): 78%
lightness recovery rate relative to that in the group A ([5]; groups B to D versus saline group A, 4-week oral administration): up to 2.5 times
Inhibition rate [6]: 40.2%
symptoms after administration [7]: only staggering gait
time to recover from drunken symptoms ([7]; control 5 hours): ≤ 1 h
